Data reported in patent publication US7855215B2, “Cyclic diaryl ureas suitable as tyrosine kinase inhibitors” (Novartis AG, priority 2004, dated 2010).

Row | Structure (SMILES) | melting point [°C]
1 | O=C(Nc1cc(Oc2ccc3c(c2)CCN3C(=O)Nc2ccc(N3CCOCC3)c(C(F)(F)F)c2)ncn1)c1cccnc1 [Example 40] | 253 to 258
2 | CN1CCN(CCCNc2cc(Oc3ccc4c(c3)CCN4C(=O)Nc3cccc(C(F)(F)F)c3)ncn2)CC1 [Example 18, 5-{6-[3-(4-Methylpiperazin-1-yl)-propylamino]-pyrimidin-4-yloxy}-2,3-dihydro-indole-1-carboxylic acid (3-trifluormethyl-phenyl)-amide] | 163
3 | CNc1cc(Oc2ccc3c(c2)CCCN3C(=O)Nc2ccc(C(C)(C)C)cc2)ncn1 [Example 3, 6-(6-Methylamino-pyrimidin-4-yloxy)-3,4-dihydro-2H-quinoline-1-carboxylic acid (4-tert.butyl-phenyl)-amide] | 175 to 176
4 | Nc1nc(Cl)cc(Oc2ccc3c(c2)CCCCN3C(=O)Nc2cccc(C(F)(F)F)c2)n1 [Example 6, 7-(2-Amino-6-chloro-pyrimidin-4-yloxy)-2,3,4,5-tetrahydro-benzo[b]azepine-1-carboxylic acid (3-trifluoromethyl-phenyl)-amide] | 175
5 | CC(C)(N)CCC(=O)Nc1cc(Oc2ccc3c(c2)CCN3C(=O)Nc2ccc(N3CCOCC3)c(C(F)(F)F)c2)ncn1 [Example 39] | 211 to 214
6 | CC(C)(CCC(=O)Nc1cc(Oc2ccc3c(c2)CCN3C(=O)Nc2ccc(N3CCOCC3)c(C(F)(F)F)c2)ncn1)[N+](=O)[O-] [Example 38] | 193 to 197
7 | CC(C)Nc1cc(Oc2ccc3c(c2)CCN3C(=O)Nc2cccc(C(F)(F)F)c2)ncn1 [Example 19, 5-(6-Isopropylamino-pyrimidin-4-yloxy)-2,3-dihydro-indole-1-carboxylic acid (3-trifluormethyl-phenyl)-amide] | 189

Next, values leading:

Row | melting point [°C] | Structure (SMILES)
8 | 120 | O=C(Nc1cccc(C(F)(F)F)c1)N1CCCCc2cc(Oc3cc(Cl)ncn3)ccc21 [Example 8, 7-(6-Chloro-pyrimidin-4-yloxy)-2,3,4,5-tetrahydro-benzo[b]azepine-1-carboxylic acid (3-trifluoromethyl-phenyl)-amide]
9 | 175 to 177 | CN1CCN(C(=O)Nc2cc(Oc3ccc4c(c3)CCN4C(=O)Nc3ccc(N4CCOCC4)c(C(F)(F)F)c3)ncn2)CC1 [Example 42]
10 | 207 | Nc1nccc(Oc2ccc3c(c2)CCCCN3C(=O)Nc2cccc(C(F)(F)F)c2)n1 [Example 7, 7-(2-Amino-pyrimidin-4-yloxy)-2,3,4,5-tetrahydro-benzo[b]azepine-1-carboxylic acid (3-trifluoromethyl-phenyl)-amide]
11 | 206 to 209 | COC(=O)Nc1cc(Oc2ccc3c(c2)CCN3C(=O)Nc2ccc(N3CCOCC3)c(C(F)(F)F)c2)ncn1 [Example 41]
12 | 227 to 229 | O=C(Nc1ccccc1)c1cc(Oc2ccc3c(c2)CCN3C(=O)Nc2cccc(C(F)(F)F)c2)ncn1 [Example 74, 5-(6-Phenylcarbamoyl-pyrimidin-4-yloxy)-2,3-dihydro-indole-1-carboxylic acid (3-trifluoromethyl-phenyl)-amide]
13 | 120 to 123 | CN1CCN(Cc2ccc(NC(=O)N3CCCc4cc(Oc5ccnc(N)n5)ccc43)cc2C(F)(F)F)CC1 [Example 33, 6-(2-Amino-pyrimidin-4-yloxy)-3,4-dihydro-2H-quinoline-1-carboxylic acid [4-(4-methyl-piperazin-1-ylmethyl)-3-trifluoromethyl-phenyl]-amide]
